# Results: patent US20220356147A1, “COMPOUNDS AND METHODS FOR POTENTIATING COLISTIN ACTIVITY” (University of Notre Dame du Lac, priority 2019, published 2022)
# Where “and” joins values, the source holds several entries; their conditions need not be identical. Equal values may be shown once. Read-outs that look alike come from different tables or passages of the source.
# Key:
# [1] = system: AB 4106; experiment: Broth microdilution, standalone MIC of compound; assay type: cell-based, A. baumannii; conditions: standalone, no colistin, read-out: MIC of compound alone, AB 4106
# Method: Broth microdilution method for the determination of minimum inhibitory concentrations: Bacteria were cultured for 4 to 6 hours in CAMHB and subcultured to 1.04×10^6 CFU/mL for AB 4106 and 1.96×10^6 CFU/mL for KP B9 in fresh CAMHB. To aliquots (1 mL) was added compound from stock solutions in DMSO, such that the compound concentration equaled the highest concentration tested. Samples were then dispensed (200 μL) into the first row of a 96-well microtiter plate in which all but the final row of subsequent wells were prefilled with 100 μL of the untreated bacterial subculture. The final row was filled with media to act as a sterility control and blank. Row one wells were mixed 6-7 times, then, 100 μL was withdrawn and transferred to row two. Row two wells were mixed 6-7 times followed by a 100 μL transfer from row two to row three. This procedure was used to serially dilute the rest of the rows of the microtiter plate, excluding the last prefilled row, which was used to measure growth in the absence of compound. Plates were then sealed with GLAD Press'n Seal and incubated under stationary conditions at 37 C. […] MIC values were determined as the minimum concentration required to achieve 90% growth inhibition compared to growth in untreated wells.
# [2] = system: A. baumannii 4106 (AB4106); experiment: Broth microdilution, colistin potentiation; assay type: cell-based
# Method: (§1) Broth microdilution method for measurement of colistin potentiation: Bacteria were cultured for 4 to 6 hours in CAMHB and diluted to 1.04×10^6 CFU/mL for AB 4106 and 1.96×10^6 CFU/mL for KP B9 in fresh CAMHB. To aliquots (4 mL) was added compound from stock solutions in DMSO. One aliquot was not dosed to allow measurement of the colistin MIC in the absence of compound. A 1 mL aliquot of each sample was dosed with colistin, and from this 200 μL was dispensed into the first row of a 96-well microtiter plate in which all but the final row of subsequent wells was prefilled with 100 μL of the corresponding compound dosed bacterial suspension The final row was filled with media to act as a sterility control and blank. Row one wells were mixed 6-7 times, then, 100 μL was withdrawn and transferred to row two. Row two wells were mixed 6-7 times followed by a 100 μL transfer from row two to row three. This procedure was used to serially dilute the rest of the rows of the microtiter plate, excluding the last prefilled row, which was used to measure growth in the presence of compound alone. Plates were then sealed with GLAD
# (§2) Press'n Seal and incubated under stationary conditions at 37° C. […] MIC values were determined as the minimum concentration required to achieve 90% growth inhibition compared to growth in untreated wells.
# [3] = system: AB4106 and KPB9; experiment: Initial screen for colistin resistance suppression, statements in words for both strains; assay type: cell-based, A. baumannii and K. pneumoniae; conditions: compound at 5 μM
# Method: as §1, §2
# [4] = system: AB 3941; experiment: Colistin potentiation, colistin-resistant isolate panel; assay type: cell-based, A. baumannii; conditions: for Colistin MIC against AB 3941: compound at 5 μM
# [5] = system: AB 4112; experiment: as above; assay type: cell-based, A. baumannii; conditions: for Colistin MIC against AB 4112: compound at 5 μM
# [6] = system: AB 17978 mcr-1; experiment: as above; assay type: cell-based, A. baumannii; conditions: for Colistin MIC against AB 17978 mcr-1: compound at 5 μM
# [7] = system: AB 4119; experiment: as above; assay type: cell-based, A. baumannii; conditions: for Colistin MIC against AB 4119: compound at 5 μM
# [8] = system: AB 3942; experiment: as above; assay type: cell-based, A. baumannii; conditions: for Colistin MIC against AB 3942: compound at 5 μM
# [9] = system: K. pneumoniae B9 (KPB9); experiment: Broth microdilution, colistin potentiation; assay type: cell-based; set-up: Colistin MIC against KPB9: unit not given here; conditions: compound at 5 μM
# Method: as §1, §2
# [10] = compound at 5 μM, colistin alone 2048 μg/mL
# [11] = in presence of compound at 1 μM
# [12] = in presence of compound at 3 μM
# [13] = in presence of compound at 5 μM
compound,measurement,setting,value
O=C(Nc1ccc(C(F)(F)F)cc1C(F)(F)F)c1cc(Cl)ccc1O [Compound 18],MIC,"[1]; Acinetobacter baumannii, 16 h",> 200 µM
same,"Colistin MIC fold reduction, AB 4106",[2]; compound at 1 μM,256 fold
same,"Colistin MIC fold reduction, AB 4106",[2]; compound at 3 μM,1024 fold
same,"Colistin MIC fold reduction, AB 4106",[2]; [10],1024 fold
same,"Colistin potentiation activity in words, compared to IMD-0354",[3],retained activity against KPB9 and AB4106 equivalent to IMD-0354
COc1cc(NC(=O)c2cc(Cl)ccc2O)cc(OC)c1 [Compound 19],MIC,"[1]; Acinetobacter baumannii, 16 h",> 200 µM
same,"Colistin MIC fold reduction, AB 4106",[2]; [10],≤ 16 fold
same,"Colistin potentiation activity in words, compared to IMD-0354",[3],bereft of activity
O=C(Nc1cc(C(F)(F)F)cc(C(F)(F)F)c1Br)c1cc(Cl)ccc1O [Compound 24],Colistin MIC against AB 3941,[4],1 µg/mL
same,Colistin MIC against AB 4112,[5],0.25 µg/mL
same,MIC,[1],>200 µM
same,Colistin MIC against AB 17978 mcr-1,[6],0.25 µg/mL
same,"Colistin MIC fold reduction, AB 4106",[2]; compound at 1 μM,512 fold
same,"Colistin MIC fold reduction, AB 4106",[2]; compound at 3 μM,2048 fold
same,"Colistin MIC fold reduction, AB 4106",[2]; [10],4096 fold
same,Colistin MIC against AB 4106,[2]; [11],4 µg/mL
same,Colistin MIC against AB 4106,[2]; [12],1 µg/mL
same,Colistin MIC against AB 4106,[2]; [13],1 µg/mL and 0.5 µg/mL
same,Colistin MIC against AB 4119,[7],0.125 µg/mL
same,Colistin MIC against AB 3942,[8],0.5 µg/mL
O=C(Nc1ccc(F)cc1C(F)(F)F)c1cc(Cl)ccc1O [Compound 27],MIC,"[1]; Acinetobacter baumannii, 16 h",> 200 µM
same,Colistin MIC against KPB9,[9],1
same,"Colistin MIC fold reduction, AB 4106",[2]; [10],256 fold
O=C(Nc1cc(C(F)(F)F)ccc1F)c1cc(Cl)ccc1O [Compound 28],Colistin MIC against AB 3941,[4],2 µg/mL
same,Colistin MIC against AB 4112,[5],2 µg/mL
same,MIC,[1],>200 µM
same,Colistin MIC against AB 17978 mcr-1,[6],0.25 µg/mL
same,"Colistin MIC fold reduction, AB 4106",[2]; compound at 1 μM,256 fold
same,"Colistin MIC fold reduction, AB 4106",[2]; compound at 3 μM,1024 fold
same,"Colistin MIC fold reduction, AB 4106",[2]; [10],1024 fold
same,Colistin MIC against AB 4106,[2]; [11],8 µg/mL
same,Colistin MIC against AB 4106,[2]; [12],2 µg/mL
same,Colistin MIC against AB 4106,[2]; [13],2 µg/mL
same,"Colistin potentiation activity in words, compared to IMD-0354",[3],activity equivalent to IMD-0354
same,Colistin MIC against AB 4119,[7],1 µg/mL
same,Colistin MIC against AB 3942,[8],2 µg/mL
Cc1ccc(NC(=O)c2cc(Cl)ccc2O)cc1C [Compound 31],MIC,"[1]; Acinetobacter baumannii, 16 h",> 200 µM
same,Colistin MIC against KPB9,[9],16
same,"Colistin MIC fold reduction, AB 4106",[2]; [10],32 fold
same,Colistin MIC against AB 4106,"[2]; compound at 5 μM, text of b125",64
Cc1ccc(NC(=O)c2cc(Cl)ccc2O)cc1Br [Compound 32],MIC,"[1]; Acinetobacter baumannii, 16 h",> 200 µM
same,Colistin MIC against KPB9,[9],8
same,"Colistin MIC fold reduction, AB 4106",[2]; [10],32 fold
"Nc1cc(NC(=O)c2cc(Cl)ccc2O)ccc1F [Compound 36, N-(3-amino-4-fluorophenyl)-5-chloro-2-hydroxybenzamide]",MIC,"[1]; Acinetobacter baumannii, 16 h",> 200 µM
same,"Colistin MIC fold reduction, AB 4106",[2]; [10],≤ 16 fold
same,"Colistin potentiation activity in words, compared to IMD-0354",[3],Neither compound displayed significant activity
COc1ccc(NC(=O)c2cc(Cl)ccc2O)cc1 [Compound 38],MIC,"[1]; Acinetobacter baumannii, 16 h",> 200 µM
same,"Colistin MIC fold reduction, AB 4106",[2]; [10],≤ 16 fold
same,"Colistin potentiation activity in words, compared to IMD-0354",[3],abolished activity
O=C(Nc1ccccc1Cl)c1cc(Cl)ccc1O [Compound 39],MIC,"[1]; Acinetobacter baumannii, 16 h",> 200 µM
same,"Colistin MIC fold reduction, AB 4106",[2]; [10],256 fold
same,"Colistin potentiation activity in words, compared to IMD-0354",[3],less active
"O=C(Nc1cc(C(F)(F)F)ccc1C(F)(F)F)c1cc(Cl)cc(Cl)c1O [Compound 61, N-(2,5-bis(trifluoromethyl)phenyl)-3,5-dichloro-2-hydroxybenzamide]",MIC,"[1]; Acinetobacter baumannii, 16 h",> 200 µM
same,"Colistin MIC fold reduction, AB 4106",[2]; [10],≤ 16 fold
same,"Colistin potentiation activity in words, compared to IMD-0354",[3],returned equipotent activity
colistin [reference compound],"MIC of colistin alone, AB 3941",[4]; absence of adjuvant,1024 µg/mL
same,"MIC of colistin alone, AB 4112",[5]; absence of adjuvant,2048 µg/mL
same,"MIC of colistin alone, AB 17978 mcr-1",[6]; absence of adjuvant,64 µg/mL
same,"MIC of colistin alone, AB 4119",[7]; absence of adjuvant,1024 µg/mL
same,"MIC of colistin alone, AB 3942",[8]; absence of adjuvant,> 2048 µg/mL
